Test results published in patent US9624167B2, “N-(4-hydroxy-4-methyl-cyclohexyl)-4-phenyl-benzenesulfonamides and N-(4-hydroxy-4-methyl-cyclohexyl)-4-(2-pyridyl)benzenesulfonamides and their therapeutic use” (PIMCO 2664 LIMITED, priority 2013, dated 2017).
Converted amounts (≈) assume the structure as drawn. Read-outs that look alike come from different tables or passages of the source.

Tests used:
[1] = Human Liver Microsomal Stability; assay type: in vitro ADME; conditions: both sexes, pooled liver microsomes, 1 μM compound
Experimental: Metabolic stability was measured by determining the rate of disappearance of compound in the presence of human liver microsomal preparations, as quantified by liquid chromatography mass-spectrometry and […] mass-spectrometry (LC-MS/MS).
Metabolic stability of test compounds was measured by determination of the rate of disappearance of the compound when incubated in the presence of human liver microsomes. Liver microsomes are prepared from the endoplasmic reticulum of hepatocytes and are the primary source of the most important enzymes (cytochrome P450s) involved in drug metabolism. Study of drug stability in the presence of liver microsomes is accepted as a valuable model permitting rapid prediction of in vivo drug stability.
Human liver microsomes were obtained from a commercial source. Test compounds (1 μM) were incubated with pooled liver microsomes (male and female). Samples were incubated for a 60 minute period and removed at up to 6 time points and analysed by LC-MS/MS for the presence/amount of test compounds.
Microsomes (final protein concentration 0.25 or 0.5 mg/mL), 0.1 M phosphate buffer pH 7.4, and test compound (final concentration 1 μM; diluted from 10 mM stock solution to give a final DMSO concentration of 0.1%) were incubated at 37° C. prior to the addition of Nicotinamide adenine dinucleotide phosphate (NADPH, final concentration 1 mM) to initiate the reaction. The final incubation volume was 100 μL. A control incubation was included for each compound tested, where 0.1 M phosphate buffer pH 7.4 was added instead of NADPH. […]
Each compound was incubated for 0, 5, 15, 30, 45 or 60 minutes. The reactions were stopped by the addition of 100 μL ice-cold acetonitrile containing internal standard (0.001 mM glipizide) at the appropriate time points. The incubation plates were centrifuged at 4000 rpm for 15 minutes at 4° C. to precipitate the protein and 0.1 mL aliquots were analysed using LC-MS/MS, with the conditions shown in the following table.
From a plot of the natural logarithm of the peak area ratio (i.e., the ratio of compound peak area:internal standard peak area) against time, the gradient of the line was determined.

[2] = Aqueous (FaSSIF) solubility; assay type: physicochemical; conditions: fasted state simulated intestinal fluid (FaSSIF); for solubility: pH 6.8, two replicates, read-out: Solubility (2)
Experimental: Solubility was measured by equilibration of the compound in fasted state simulated intestinal fluid (FaSSIF) and quantified by high-performance liquid chromatography (HPLC).
Aqueous solubility was measured by equilibration of compounds with fasted state simulated intestinal fluid (FaSSIF) and quantified spectrophotometrically.
FaSSIF was prepared as described below:
Preparation of blank FaSSIF: 0.21 g of sodium hydroxide (NaOH) pellets, 1.97 g of dihydrogen sodium phosphate (NaH2PO4.2H2O) and 3.09 g of sodium chloride (NaCl) were dissolved in 400 mL of deionised water. […]
Preparation of FaSSIF: 0.056 g of SIF Powder (containing sodium taurocholate and lecithin) (Phares AG) was dissolved in 25 mL of blank FaSSIF and stirred until the powder was completely dissolved. The solution was allowed to stand for 2 hours during which it became opalescent; it was used within 24 hours. The final solution composition was characterised as follows: • Sodium taurocholate: 3 mM • Lecithin: 0.75 mM • Osmolarity: 270±10 mOsmol • pH: 6.5
The optical density was measured at the end of the incubation period for test compounds and a reference used to determine solubility. In brief, two samples were prepared for each determination: a reference sample consisting of a stock solution of test compound in DMSO diluted in system solution (a phosphate free, low absorption buffer) and propanol; and a test sample (prepared in triplicate) consisting of 0.5 mL FaSSIF spiked with test compound at 0.2 mM. Each sample was incubated at room temperature for 16 hours with constant shaking at 250 rpm. At the end of the incubation period, 0.3 mL of each sample was filtered through a pION filter plate (PION, Woburn Mass.), diluted 1:1 with propanol and scanned using UV spectrophotometry at λmax ([…]) using a Spectra Max Plus—Version 2.1000 (Molecular Devices, Sunnyvale, Calif.), with μSOL Explorer solubility determination software (pION, Woburn, Mass.).
FaSSIF solubility was calculated using the following formula:
[formula] wherein: • “OD” is the optical density; • “Cr” is the concentration of the reference (33.4 μM); and • “molecular weight” is for the test compound (e.g., 381.44 for ABD735).

[3] = test system: IL-6 release from LPS-stimulated Thp1 macrophages; test: Thp1 Macrophage IL-6 Release Assay; assay type: cell-based; conditions: Homo sapiens
Text: Anti-inflammatory effects were further characterised by assessing the production of interleukin-6 (IL-6) by human Thp-1 derived macrophages stimulated with a pro-inflammatory stimulus bacterial lipopolysaccharide (LPS). LPS acts with a cell-surface receptor, Toll-like receptor-4 to activate the NFκB and IRF signalling pathways to produce IL-6. The reduction of IL—in this stimulated assay is indicative of anti-inflammatory effects with utility in the treatment of conditions in which IL-6 production is aberrant.
In vitro potency of test compounds in human cells was determined by incubation with Thp1 macrophages and subsequent stimulation with an inflammatory stimulus (bacterial lipopolysaccharide (LPS)) followed by measurement of cellular interleukin-6 (IL-6) release.
Thp1 cells were plated at a concentration of 1×10^5 cells/well or 1.7×10^5 cells/well in 500 μL or 150 μL RPMI complete media containing 1% penicillin-streptomycin and 10% heat inactivated foetal bovine serum in 24-well plates or 96-well plates, respectively and allowed to adhere overnight. The following day, the cells were stimulated with phorbol myristic acid (PMA) at a final concentration of 100 nM (24-well plates) or 200 nM (96-well plates) to induce differentiation and maintained for up to 8 days with a medium change at 5 days if cells were cultured to 8 days. Test compounds were prepared as […] solutions in DMSO and then serially diluted in DMSO prior to dilution in culture medium.
The diluted compounds were added to the cultures 1 hour prior to stimulation with 100 ng/mL LPS. Following a 16 or 18 hour incubation at 37° C./5% CO2, the cell culture medium was collected and assayed for human IL-6 levels using the human IL-6 duo-set ELISA kit (R&D Systems). The average results for each test compound (n=3) were expressed as a percent (%) of the average control value. The average values across the concentrations tested were then plotted and the IC50 for the inhibition of IL-6 was calculated by fitting the data to a 4-parameter IC50 equation using software from Grafit version 6.0.12 (Erithacus Software Ltd., by Dr Robin Leatherbarrow) or GraphPad Prism version 5.04 for Windows (GraphPad Software, La Jolla, Calif., USA, www.qraphpad.com). Each experiment was repeated twice and the data are presented as the mean IC50 from both experiments.

[4] = pH 7.4, human liver microsomes 0.5 mg/mL protein, 6 time points 0-60 min, two replicates, read-out: T1/2 (2)
[5] = THP-1, 1.7 × 10^5 cells/well, 96-well plates, 3 days, 9 point curve, IL6 measured 18 hours after LPS, read-out: IC50 (2)

C[C@]1(O)CC[C@@H](NS(=O)(=O)c2ccc(-c3ncc(F)cc3F)cc2)CC1 [HMC-N-02-B, 4-(3,5-Difluoropyridin-2-yl)-N-((1s,4s)-4-hydroxy-4-methylcyclohexyl)benzenesulfonamide]
half-life at 1 μM [1, 4]: 2.8 h | solubility [2]: 120 µg/mL (≈ 314 µM) | IC50 [3, 5]: 20 nM

C[C@]1(O)CC[C@H](NS(=O)(=O)c2ccc(-c3ncc(Cl)cc3Cl)cc2)CC1 [HMC-N-03-A, 4-(3,5-Dichloropyridin-2-yl)-N-((1r,4r)-4-hydroxy-4-methylcyclohexyl)benzenesulfonamide]
half-life at 1 μM ([1]; pH 7.4, human liver microsomes 0.25 mg/mL protein, 5 time points 0-60 min, one replicate, read-out: T1/2 (1)): 4.3 h | solubility at 16 h ([2]; kinetic from dmso stock, pH 6.5, three replicates, 16 hours, read-out: Solubility (1)): > 80 µg/mL | IC50 ([3]; THP-1, 1 × 10^5 cells/well, 24-well plates, 8 days, 6 point curve, IL6 measured 16 hours after LPS, read-out: IC50 (1)): 50 nM

C[C@]1(O)CC[C@@H](NS(=O)(=O)c2ccc(-c3ncc(Cl)cc3Cl)cc2)CC1 [HMC-N-03-B, 4-(3,5-Dichloropyridin-2-yl)-N-((1s,4s)-4-hydroxy-4-methylcyclohexyl)benzenesulfonamide]
half-life at 1 μM [1, 4]: 1.17 h | solubility [2]: 100 µg/mL (≈ 241 µM) | IC50 [3, 5]: 20 nM
